Values of other authors, collected in US6528705B1, “Method for improving productivity of higher plants” (Nara Institute of Science and Technology, priority 1999, dated 2003).
Where two headings read alike, the source gives them in different places. Each block holds one molecule with its values, some of them ahead of it.

What was measured:
[1] = biological target: Synechococcus PCC 7942 FBPase-I (fructose-1,6-bisphosphatase/sedoheptulose-1,7-bisphosphatase, FBPase/SBPase), wild type, sequence number 1
[2] = test system: Synechococcus PCC 7942 FBPase-I (fructose-1,6-bisphosphatase/sedoheptulose-1,7-bisphosphatase, FBPase/SBPase), wild type, sequence number 1; details: purified enzyme
[3] = test system: Synechococcus PCC 7942 FBPase-I (fructose-1,6-bisphosphatase/sedoheptulose-1,7-bisphosphatase, FBPase/SBPase), wild type, sequence number 1; details: after the treatment by 1 mM H2O2; purified enzyme

Ki ([1]; inhibition of the enzyme activity by AMP): 260 µM
SMILES: Nc1ncnc2c1ncn2[C@@H]1O[C@H](COP(=O)(O)O)[C@@H](O)[C@H]1O [AMP]

Km ([2]; substrate Fru1,6-P2, read-out: Km for Fru1,6-P2): 52 µM
SMILES: O=P(O)(O)OC[C@H]1OC(O)(COP(=O)(O)O)[C@@H](O)[C@@H]1O (some centres unmarked) [Fru1,6-P2, fructose-1,6-bisphosphate]

native enzyme activity retained [3]: more than 80%
SMILES: OO [H2O2]

Km ([2]; substrate Sed1,7-P2, read-out: Km for Sed1,7-P2): 118 µM
SMILES: O=P(O)(O)OC[C@@H](O)[C@H]1OC(O)(COP(=O)(O)O)[C@@H](O)[C@@H]1O (some centres unmarked) [Sed1,7-P2, sedoheptulose-1,7-bisphosphate]

inhibition of enzyme activity ([1]; fructose-2,6-P2, concentration not given): not inhibited
SMILES: O=P(O)(O)OC[C@H]1O[C@@](CO)(OP(=O)(O)O)[C@@H](O)[C@@H]1O [fructose-2,6-P2]
